Test results published in patent US6355799B1, “Substituted benzene compounds, process for their preparation, and herbicidal and defoliant compositions containing them” (ISK Americas Incorporated, priority 1997, dated 2002).
Where two headings read alike, the source gives them in different places.

Legend:
Format in all cases: in vivo
[1] = tested on: large crabgrass (Digitaria sanguinalis, DIGSA); assay: Pre-emerge test, greenhouse herbicide activity screening; conditions: Digitaria sanguinalis, pre-emergence, 336 h, read-out: Pre-emerge Herbicidal Activity DIGSA
Method in brief: (§1)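 Visual ratings on a 0-100 scale (0 no damage, 100 all plants dead) were taken at 14 days after treatment. Rates of 15-1000 g ai/ha in acetone, 187 l/ha, were sprayed onto soil one day after planting (pre-emerge) or onto 2-3 leaf plants with 0.25% v/v surfactant (post-emerge).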

[2] = tested on: ivyleaf morningglory (Ipomoea hederacea, IPOHE); assay: as above; conditions: Ipomoea, pre-emergence, 336 h, read-out: Pre-emerge Herbicidal Activity IPOHE
Method in brief: as §1

[3] = tested on: sicklepod (Cassia obtusifolia, CASOB); assay: as above; conditions: Senna obtusifolia, pre-emergence, 336 h, read-out: Pre-emerge Herbicidal Activity CASOB
Method in brief: as §1

[4] = tested on: barnyardgrass (Echinochloa crus-galli, ECHCG); assay: as above; conditions: Echinochloa crus-galli, pre-emergence, 336 h, read-out: Pre-emerge Herbicidal Activity ECHCG
Method in brief: as §1

[5] = tested on: green foxtail (Setaria viridis, SETVI); assay: as above; conditions: Setaria viridis, pre-emergence, 336 h, read-out: Pre-emerge Herbicidal Activity SETVI
Method in brief: as §1

[6] = tested on: lambsquarters (Chenopodium album, CHEAL); assay: as above; conditions: Chenopodium album, pre-emergence, 336 h, read-out: Pre-emerge Herbicidal Activity CHEAL
Method in brief: as §1

[7] = tested on: velvetleaf (Abutilon theophrasti, ABUTH); assay: as above; conditions: Abutilon theophrasti, pre-emergence, 336 h, read-out: Pre-emerge Herbicidal Activity ABUTH
Method in brief: as §1

[8] = tested on: johnsongrass (Sorghum halepense, SORHA); assay: as above; conditions: Sorghum halepense, pre-emergence, 336 h, read-out: Pre-emerge Herbicidal Activity SORHA
Method in brief: as §1

[9] = tested on: redroot pigweed (Amaranthus retroflexus, AMARE); assay: as above; conditions: Amaranthus retroflexus, pre-emergence, 336 h, read-out: Pre-emerge Herbicidal Activity AMARE
Method in brief: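 Sandy loam pots; pre-emerge: sown 1 d pre-spray, surface-watered after, then bottom-watered. Post-emerge: sown 8–21 d before, 2–3 leaf stage, + 0.25% v/v NIS, bottom-watered. Acetone, 187 l/ha track spray, 15–1000 g ai/ha. 0–100 injury score, day 14.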

[10] = tested on: large crabgrass (Digitaria sanguinalis, DIGSA); assay: Post-emerge test, greenhouse herbicide activity screening; conditions: post-emerge; for phytotoxicity rating DIGSA: 14 days after application, rating scale 0-100
Method in brief: (§2)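 Fourteen days after spraying, crop and weed injury was graded visually from 0, no effect, to 100, every plant dead. Test substances were dissolved in acetone and applied at 15–1000 g ai/ha with a flat-fan nozzle. Application was either pre-emergence, one day after sowing, or post-emergence at the 2–3 leaf stage.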

[11] = tested on: ivyleaf morningglory (Ipomoea hederacea, IPOHE); assay: as above; conditions: post-emerge; for phytotoxicity rating IPOHE: 14 days after application, rating scale 0-100
Method in brief: as §2

[12] = tested on: sicklepod (Cassia obtusifolia, CASOB); assay: as above; conditions: post-emerge; for phytotoxicity rating CASOB: 14 days after application, rating scale 0-100
Method in brief: as §2

[13] = tested on: green foxtail (Setaria viridis, SETVI); assay: as above; conditions: post-emerge; for phytotoxicity rating SETVI: 14 days after application, rating scale 0-100
Method in brief: as §2

[14] = tested on: johnsongrass (Sorghum halepense, SORHA); assay: as above; conditions: post-emerge; for phytotoxicity rating SORHA: 14 days after application, rating scale 0-100
Method in brief: as §2

[15] = 63 g ai/ha, phytotoxicity rating 0-100, 14 days after application
[16] = 250 g ai/ha, phytotoxicity rating 0-100, 14 days after application
[17] = pre-emerge, rate 63 g ai/ha, phytotoxicity rating 0-100 at 14 days after application
[18] = pre-emerge, rate 250 g ai/ha, phytotoxicity rating 0-100 at 14 days after application

For `COC(=O)Nc1c(OC)c(Cl)cc(F)c1-n1c(=O)cc(C(F)(F)F)n(C)c1=O` [Compound 4-1, 3-(4chloro-6-fluoro-3-methoxy-2-methoxycarbonylaminophenyl)-1-methyl-6-trifluoromethyl-2,4(1H, 3H)-pyrimidinedione], the pest or weed control at 63 g/ha [1, 15] was 60%, the pest or weed control at 250 g/ha [1, 16] was 100% and the pest or weed control at 63 g/ha [2, 15] was 100%. For the same molecule, the pest or weed control at 250 g/ha [2, 16] was 100%, the pest or weed control at 63 g/ha [3, 15] was 95% and the pest or weed control at 250 g/ha [3, 16] was 100%. For the same molecule, the pest or weed control at 63 g/ha [4, 15] was 10%, the pest or weed control at 250 g/ha [4, 16] was 100% and the pest or weed control at 63 g/ha [5, 15] was 100%. The pest or weed control at 250 g/ha [5, 16] was 100%, the pest or weed control at 63 g/ha [6, 15] was 100% and the pest or weed control at 250 g/ha [6, 16] was 100%. It also gave a pest or weed control at 63 g/ha [7, 15] of 100%, a pest or weed control at 250 g/ha [7, 16] of 100% and a pest or weed control at 63 g/ha [8, 15] of 60%. The pest or weed control at 250 g/ha [8, 16] was 100%, the pest or weed control at 63 g/ha [9, 15] was 100% and the pest or weed control at 250 g/ha [9, 16] was 100%. The “phytotoxicity rating DIGSA” value ([10]; 63 g ai/ha) was 0, the “phytotoxicity rating DIGSA” value ([10]; 250 g ai/ha) was 0 and the “phytotoxicity rating IPOHE” value ([11]; 63 g ai/ha) was 100. The “phytotoxicity rating IPOHE” value ([11]; 250 g ai/ha) was 100, the “phytotoxicity rating CASOB” value ([12]; 63 g ai/ha) was 30 and the “phytotoxicity rating CASOB” value ([12]; 250 g ai/ha) was 50. The “phytotoxicity rating SETVI” value ([13]; 63 g ai/ha) was 0, the “phytotoxicity rating SETVI” value ([13]; 250 g ai/ha) was 10 and the “phytotoxicity rating SORHA” value ([14]; 63 g ai/ha) was 0. The “phytotoxicity rating SORHA” value ([14]; 250 g ai/ha) was 20.

`Nc1c(O)c(Cl)cc(F)c1N1C(=O)C2=C(CCCC2)C1=O` [Compound 8-2, 2-amino-6-chloro-4-fluoro-3-tetrahydrophthalimido)phenol] showed a pest or weed control at 63 g/ha [1, 17] of 0%, a pest or weed control at 250 g/ha [1, 18] of 70% and a pest or weed control at 63 g/ha [2, 17] of 0%. The pest or weed control at 250 g/ha [2, 18] was 0%, the pest or weed control at 63 g/ha [3, 17] was 0% and the pest or weed control at 250 g/ha [3, 18] was 90%. The pest or weed control at 63 g/ha [4, 17] was 0%, the pest or weed control at 250 g/ha [4, 18] was 40% and the pest or weed control at 63 g/ha [5, 17] was 20%. It also gave a pest or weed control at 250 g/ha [5, 18] of 100%, a pest or weed control at 63 g/ha [6, 17] of 80% and a pest or weed control at 250 g/ha [6, 18] of 100%. For the same molecule, the pest or weed control at 63 g/ha [7, 17] was 80%, the pest or weed control at 250 g/ha [7, 18] was 100% and the pest or weed control at 63 g/ha [8, 17] was 0%. For the same molecule, the pest or weed control at 250 g/ha [8, 18] was 20%, the pest or weed control at 63 g/ha [9, 17] was 90% and the pest or weed control at 250 g/ha [9, 18] was 100%. The pest or weed control at 63 g/ha ([10]; Digitaria sanguinalis, post-emergence, 336 h, 63 g ai/ha, phytotoxicity rating 0-100 at 14 days after application, read-out: Post-emerge Herbicidal Activity DIGSA) was 30%, the pest or weed control at 250 g/ha ([10]; Digitaria sanguinalis, post-emergence, 336 h, 250 g ai/ha, phytotoxicity rating 0-100 at 14 days after application, read-out: Post-emerge Herbicidal Activity DIGSA) was 30% and the pest or weed control at 63 g/ha ([11]; Ipomoea, post-emergence, 336 h, 63 g ai/ha, phytotoxicity rating 0-100 at 14 days after application, read-out: Post-emerge Herbicidal Activity IPOHE) was 50%. The pest or weed control at 250 g/ha ([11]; Ipomoea, post-emergence, 336 h, 250 g ai/ha, phytotoxicity rating 0-100 at 14 days after application, read-out: Post-emerge Herbicidal Activity IPOHE) was 90%, the pest or weed control at 63 g/ha ([12]; Senna obtusifolia, post-emergence, 336 h, 63 g ai/ha, phytotoxicity rating 0-100 at 14 days after application, read-out: Post-emerge Herbicidal Activity CASOB) was 50% and the pest or weed control at 250 g/ha ([12]; Senna obtusifolia, post-emergence, 336 h, 250 g ai/ha, phytotoxicity rating 0-100 at 14 days after application, read-out: Post-emerge Herbicidal Activity CASOB) was 30%. It also gave a pest or weed control at 63 g/ha ([13]; Setaria viridis, post-emergence, 336 h, 63 g ai/ha, phytotoxicity rating 0-100 at 14 days after application, read-out: Post-emerge Herbicidal Activity SETVI) of 40%, a pest or weed control at 250 g/ha ([13]; Setaria viridis, post-emergence, 336 h, 250 g ai/ha, phytotoxicity rating 0-100 at 14 days after application, read-out: Post-emerge Herbicidal Activity SETVI) of 60% and a pest or weed control at 63 g/ha ([14]; Sorghum halepense, post-emergence, 336 h, 63 g ai/ha, phytotoxicity rating 0-100 at 14 days after application, read-out: Post-emerge Herbicidal Activity SORHA) of 10%. The pest or weed control at 250 g/ha ([14]; Sorghum halepense, post-emergence, 336 h, 250 g ai/ha, phytotoxicity rating 0-100 at 14 days after application, read-out: Post-emerge Herbicidal Activity SORHA) was 0%.
